According to patent publication US7902254B1, “Method for treating conditions mediated by PPAR using macelignan” (Newtree Co., Ltd., priority 2005, dated 2011):

Tests used:
[1] = test system: target genes of PPARγ (CD36, LPL, ACS, GyK); assay: Expression of target genes of PPARγ in liver tissue of obesity/diabetes mouse model; format: in vivo; settings: 5, 10 and 25 mg/kg oral, 14 days, db/db mice, p<0.05 vs control
Procedure: Liver tissue was removed from the test groups and the controls treated by oral administration in Examples 5˜8. The liver tissue was homogenized in liquid nitrogen and the total RNA was isolated from the crushed tissues by using TRIZOL (Invitrogen, USA). The total RNA isolated as described above was determined and cDNA was synthesized by using reverse transcriptase at 42° C. for 20 minutes. The cDNA was subjected to RT-PCR by repeating the cycle of 95° C./1 minute, 56° C./30 seconds and 72° C./2 minutes thirty times with the following primers and Taq polymerase: primers for CD36 amplification (SEQ ID NO: 5 and SEQ ID NO: 6), primers for LPL amplification (SEQ ID NO: 13 and SEQ ID NO: 14), primers for ACS amplification (SEQ ID NO: 17 (AGCAGAGCTTCGCACGGC) and SEQ ID NO: 18 ([…]) and primers for GyK amplification (SEQ ID NO: 19 ([…]) and SEQ ID NO: 20 ([…])). Expression of the genes was determined by real-time PCR.

human PPARγ = target: T1, human PPARγ (Homo sapiens, UniProt P37231); assay: PPARγ activation, luciferase reporter in transfected COS-7 cells; format: cell-based; settings: 24 hours
T1 construct: expressed in transfected cells; host or cells: COS-7 monkey kidney cells (ATCC CRL-1651)
T1 sequence (P37231 176-477 isoform P37231-2): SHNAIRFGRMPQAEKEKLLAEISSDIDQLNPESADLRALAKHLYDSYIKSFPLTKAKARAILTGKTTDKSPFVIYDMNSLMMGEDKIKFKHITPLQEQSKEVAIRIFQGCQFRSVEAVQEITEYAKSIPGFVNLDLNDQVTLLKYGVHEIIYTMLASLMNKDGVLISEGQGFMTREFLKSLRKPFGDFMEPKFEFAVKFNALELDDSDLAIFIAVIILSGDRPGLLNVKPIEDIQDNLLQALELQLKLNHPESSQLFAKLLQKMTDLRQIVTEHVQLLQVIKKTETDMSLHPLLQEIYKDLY
Procedure: Then, the polynucleotide was cloned between the restriction enzyme sites of BamHI and KpnI of pFA vector (Stratagene, USA). […] RT-PCR was performed by synthesizing cDNA using reverse transcriptase at 42° C. for 60 minutes, and 30 cycles of 1 minute at 95° C., 30 seconds at 54° C. and 2 minutes at 72° C. using Taq polymerase. […] Then, the polynucleotide was cloned between the restriction enzyme sites of XbaI and KpnI of pFA vector (Stratagene, USA).

human PPARα = target: T2, human PPARα (Homo sapiens, UniProt Q07869); assay: PPARα activation, PPRE-controlled luciferase reporter in transfected COS-7 cells; format: cell-based; settings: 24 hours
T2 construct: expressed in transfected cells; host or cells: COS-7 monkey kidney cells (ATCC CRL-1651)
T2 sequence (Q07869 192-468 limits assumed): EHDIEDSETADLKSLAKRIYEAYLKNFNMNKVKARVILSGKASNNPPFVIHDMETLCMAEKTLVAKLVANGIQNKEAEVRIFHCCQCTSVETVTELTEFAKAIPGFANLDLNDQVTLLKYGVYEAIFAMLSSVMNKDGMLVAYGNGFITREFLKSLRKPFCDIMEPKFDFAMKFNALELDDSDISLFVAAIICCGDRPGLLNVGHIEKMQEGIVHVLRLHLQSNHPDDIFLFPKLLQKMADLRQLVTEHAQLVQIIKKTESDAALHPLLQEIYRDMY
Procedure: To investigate whether macelignan acts as a ligand of PPAR or not, it was tested according to known method (Cell, 68: 879-887, 1992; J. Biol. Chem., 272: 25252-25259, 1997) using a plasmid expressing PPAR and a vector having PPRE-controlled luciferase genes.
Activation of luciferase expression was measured by transfecting COS-7 monkey kidney cells (ATCC CRL-1651) with the PPARα plasmid and pFR-luciferase vector (Stratagene, USA), and then by treating the transfected cells with macelignan isolated from Example 1 for 24 hours. The PPARα plasmid was obtained by isolating polynucleotide encoding the amino acid sequence of amino acids […] (i.e. PPARα ligand-bound domain of the total amino acid sequence of human PPARα (Genbank Acession No. S74349)) with the primers of SEQ ID NO: 1 ([…]) and SEQ ID NO: 2 (TGGGGTACCTGGCTGAT) by RT-PCR. Then, the polynucleotide was cloned between the restriction enzyme sites of BamHI and KpnI of pFA vector (Stratagene, USA). Herein, mRNA used as the template in RT-PCR was obtained by separating the total RNA in cultured Hep G2 (ATCC HB-8065) human liver cells by using TRIZOL (Invitrogen, USA). RT-PCR was performed by synthesizing cDNA using reverse transcriptase at 42° C. for 60 minutes, and 30 cycles of 1 minute at 95° C., 30 seconds at 54° C. and 2 minutes at 72° C. using Taq polymerase. At this time, the test groups treated with different concentrations (1, 5, 10 and 25 μM) of macelignan according to the present invention were compared to the control treated with 0.01% DMSO, and to the groups treated with different concentrations (1, 5, 10 and 25 μM) of Wy-14643 (Sigma, USA), a compound known as a PPARα ligand.

[2] = 1, 5, 10 and 25 μM, p<0.01 vs control

COc1cc(C[C@H](C)[C@H](C)Cc2ccc3c(c2)OCO3)ccc1O (single isomer, unassigned) [macelignan]
mRNA expression of CD36, LPL, ACS and GyK in liver tissue [1]: significantly increased | luciferase activity higher than the control (PPARγ) (human PPARγ; 25 μM, control 0.01% DMSO): about 10.4 times | PPARγ activity (human PPARγ; [2]): increased PPARγ activity in a concentration-dependent manner | luciferase activity higher than the control (PPARα) (human PPARα; 25 μM, control 0.01% DMSO): about 14 times | PPARα activity (human PPARα; [2]): increased PPARα activity in a concentration-dependent manner
